{"source": "patent US9815796B2", "about": "(Merck Sharp & Dohme Corp., priority 2013, dated 2017)", "biological_target": "Rhesus PDE2A3 (Macaca mulatta, UniProt B3VTJ2)", "sequence (B3VTJ2 1-941)": "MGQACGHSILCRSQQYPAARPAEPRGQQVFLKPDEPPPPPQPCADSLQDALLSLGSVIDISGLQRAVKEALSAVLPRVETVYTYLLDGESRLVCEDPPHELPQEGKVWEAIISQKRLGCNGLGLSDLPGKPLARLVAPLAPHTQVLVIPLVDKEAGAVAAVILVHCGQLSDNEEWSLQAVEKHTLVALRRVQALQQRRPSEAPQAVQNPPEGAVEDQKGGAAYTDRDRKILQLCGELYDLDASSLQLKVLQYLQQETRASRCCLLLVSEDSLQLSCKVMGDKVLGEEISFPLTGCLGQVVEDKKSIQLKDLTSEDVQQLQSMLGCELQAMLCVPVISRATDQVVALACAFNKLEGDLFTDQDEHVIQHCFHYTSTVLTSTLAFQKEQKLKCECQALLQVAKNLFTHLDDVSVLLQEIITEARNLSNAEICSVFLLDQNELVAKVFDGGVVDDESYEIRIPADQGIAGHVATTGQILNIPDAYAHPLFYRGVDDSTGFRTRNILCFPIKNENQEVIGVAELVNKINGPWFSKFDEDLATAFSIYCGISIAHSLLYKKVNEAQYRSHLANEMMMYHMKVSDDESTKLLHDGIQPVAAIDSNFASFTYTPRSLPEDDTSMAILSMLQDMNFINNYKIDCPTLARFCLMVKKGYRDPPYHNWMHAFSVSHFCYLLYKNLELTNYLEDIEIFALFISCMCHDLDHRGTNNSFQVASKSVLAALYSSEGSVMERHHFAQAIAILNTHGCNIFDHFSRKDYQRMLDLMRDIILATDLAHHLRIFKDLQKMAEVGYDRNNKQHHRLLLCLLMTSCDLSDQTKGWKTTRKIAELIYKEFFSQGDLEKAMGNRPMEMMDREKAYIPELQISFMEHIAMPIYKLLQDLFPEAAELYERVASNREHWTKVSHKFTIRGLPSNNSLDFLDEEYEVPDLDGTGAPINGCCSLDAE", "experiment": "PDE2 fluorescence polarization (IMAP FP) inhibition assay, rhesus enzyme", "format": "biochemical, rhesus macaque", "how_it_was_run": "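Rhesus PDE2A3 came from lysate of transiently transfected AD293 cells, diluted to give 20% substrate conversion. Substrate was 50 nM FAM-cAMP with 1 uM cGMP activator in Tris pH 7.2/MgCl2 buffer, run 60 min at room temperature over 10-point 3-fold dilutions in 1% DMSO. Read-out was IMAP fluorescence polarization (mP) after ≥1 h binding.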", "key": {"[1]": {"settings": "Rhesus PDE2, Lab A, read-out: Rhesus PDE2 Ki (nM) - Lab A"}, "[2]": {"settings": "Rhesus PDE2, Lab B, read-out: Rhesus PDE2 Ki (nM) - Lab B"}}, "note": "Like-named read-outs stand apart in the source and are kept apart here.", "data": [{"molecule": "Cc1cc(C(F)(F)F)ccc1CNC(=O)c1cc(=O)[nH]c(C2CC2)n1", "note": "[Example 228, 2-cyclopropyl-N-[2-methyl-4-(trifluoromethyl)benzyl]-6-oxo-1,6-dihydropyrimidine-4-carboxamide]", "values": [{"measurement": "Ki", "setting": "[1]", "result": 1430, "unit": "nM"}]}, {"molecule": "CC(C)(NC(=O)c1cc(=O)[nH]c(-c2ccccc2)n1)c1ccccc1", "note": "[Example 390, N-(1-methyl-1-phenylethyl)-6-oxo-2-phenyl-1,6-dihydropyrimidine-4-carboxamide]", "values": [{"measurement": "Ki", "setting": "[2]", "result": 1700, "unit": "nM"}]}, {"molecule": "Cc1nc(C(=O)N[C@@H](C)c2ccc(OC(F)F)cc2)cc(=O)[nH]1", "note": "[Example 56, (S)-N-(1-(4-(difluoromethoxy)phenyl)ethyl)-2-methyl-6-oxo-1,6-dihydropyrimidine-4-carboxamide]", "values": [{"measurement": "Ki", "setting": "[1]", "result": 4590, "unit": "nM"}]}, {"molecule": "COc1ccc(Cc2nc(C(=O)NC3(C)CC3)cc(=O)[nH]2)cc1OC", "note": "[Example 5, 2-(3,4-dimethoxybenzyl)-N-(1-methylcyclopropyl)-6-oxo-1,6-dihydropyrimidine-4-carboxamide]", "values": [{"measurement": "Ki", "setting": "[1]", "result": 1150, "unit": "nM"}]}, {"molecule": "CC(C)(NC(=O)c1cc(=O)[nH]c(-c2ccccc2)n1)c1cccc(Br)c1", "note": "[Example 400, N-[1-(3-bromophenyl)-1-methylethyl]-6-oxo-2-phenyl-1,6-dihydropyrimidine-4-carboxamide]", "values": [{"measurement": "Ki", "setting": "[2]", "result": 1070, "unit": "nM"}]}, {"molecule": "O=C(NC(c1ccccc1)c1ccc(C(F)(F)F)cc1)c1cc(=O)[nH]c(-c2ccccc2)n1", "note": "(stereo not drawn) [Example 162, 6-oxo-2-phenyl-N-{phenyl[4-(trifluoromethyl)phenyl]methyl}-1,6-dihydropyrimidine-4-carboxamide]", "values": [{"measurement": "Rhesus PDE2 % inh. at 1 uM - Lab A", "setting": "Rhesus PDE2, Lab A, at 1 uM", "result": 45, "unit": "% inh."}, {"measurement": "Ki", "setting": "[1]", "result": "> 1000", "unit": "nM"}, {"measurement": "Ki", "setting": "[2]", "result": 1000, "unit": "nM"}]}, {"molecule": "CC(NC(=O)c1cc(=O)[nH]c(-c2ccccc2)n1)c1cccc(-c2ccc(F)cc2)c1", "note": "(stereo not drawn) [Example 396, N-[1-(4′-fluorobiphenyl-3-yl)ethyl]-6-oxo-2-phenyl-1,6-dihydropyrimidine-4-carboxamide]", "values": [{"measurement": "Ki", "setting": "[2]", "result": "~20300", "unit": "nM"}]}, {"molecule": "O=C(NCc1ccc(C2CC2)cc1)c1cc(=O)[nH]c(C2CC2)n1", "note": "[Example 221, 2-cyclopropyl-N-(4-cyclopropylbenzyl)-6-oxo-1,6-dihydropyrimidine-4-carboxamide]", "values": [{"measurement": "Ki", "setting": "[1]", "result": 681, "unit": "nM"}]}, {"molecule": "C[C@H](NC(=O)c1cc(=O)[nH]c(-c2ccccc2)n1)c1ccc(Cl)cc1", "note": "[Example 394, N-[(1S)-1-(4-chlorophenyl)ethyl]-6-oxo-2-phenyl-1,6-dihydropyrimidine-4-carboxamide]", "values": [{"measurement": "Ki", "setting": "[2]", "result": 2220, "unit": "nM"}]}, {"molecule": "Cc1cc(C(F)(F)F)ccc1CNC(=O)c1cc(=O)[nH]c(-c2ccccc2)n1", "note": "[Example 180, N-[2-methyl-4-(trifluoromethyl)benzyl]-6-oxo-2-phenyl-1,6-dihydropyrimidine-4-carboxamide]", "values": [{"measurement": "Ki", "setting": "[1]", "result": 2050, "unit": "nM"}]}, {"molecule": "Cc1nc(C(=O)NCc2ccc(C(F)(F)F)cc2C)cc(=O)[nH]1", "note": "[Example 23, 2-methyl-N-[2-methyl-4-(trifluoromethyl)benzyl]-6-oxo-1,6-dihydropyrimidine-4-carboxamide]", "values": [{"measurement": "Ki", "setting": "[1]", "result": 3920, "unit": "nM"}]}, {"molecule": "CC(C)(C)c1ccc(CCNC(=O)c2cc(=O)[nH]c(-c3ccccc3)n2)cc1", "note": "[Example 375, N-[2-(4-tert-butylphenyl)ethyl]-6-oxo-2-phenyl-1,6-dihydropyrimidine-4-carboxamide]", "values": [{"measurement": "inhibition at 1 µM", "setting": "Rhesus PDE2, Lab A, at 1 uM, read-out: Rhesus PDE2 % inh. at 1 uM - Lab A", "result": 46, "unit": "%"}, {"measurement": "Ki", "setting": "[1]", "result": 1000, "unit": "nM"}, {"measurement": "Ki", "setting": "[2]", "result": 2040, "unit": "nM"}]}, {"molecule": "O=C(NC1(c2ccccc2OC(F)(F)F)CC1)c1cc(=O)[nH]c(-c2ccccc2)n1", "note": "[Example 380, 6-oxo-2-phenyl-N-{1-[2-(trifluoromethoxy)phenyl]cyclopropyl}-1,6-dihydropyrimidine-4-carboxamide]", "values": [{"measurement": "Ki", "setting": "[2]", "result": 353, "unit": "nM"}]}, {"molecule": "C[C@@H](NC(=O)c1cc(=O)[nH]c(-c2ccccc2)n1)c1ccc([N+](=O)[O-])cc1", "note": "[Example 459, N-[(1R)-1-(4-nitrophenyl)ethyl]-6-oxo-2-phenyl-1,6-dihydropyrimidine-4-carboxamide]", "values": [{"measurement": "Ki", "setting": "[2]", "result": 224, "unit": "nM"}]}, {"molecule": "COc1ccc(C(NC(=O)c2cc(=O)[nH]c(-c3ccccc3)n2)c2ccc(C(F)(F)F)cc2)cc1", "note": "(stereo not drawn) [Example 381, N-{(4-methoxyphenyl)[4-(trifluoromethyl)phenyl]methyl}-6-oxo-2-phenyl-1,6-dihydropyrimidine-4-carboxamide]", "values": [{"measurement": "Ki", "setting": "[2]", "result": "~20400", "unit": "nM"}]}, {"molecule": "O=C(NCc1ccc(C(F)(F)F)cc1Cl)c1cc(=O)[nH]c(C2CC2)n1", "note": "[Example 229, N-[2-chloro-4-(trifluoromethyl)benzyl]-2-cyclopropyl-6-oxo-1,6-dihydropyrimidine-4-carboxamide]", "values": [{"measurement": "Ki", "setting": "[1]", "result": 864, "unit": "nM"}]}, {"molecule": "O=C(NC(c1ccncc1)c1ccc(C(F)(F)F)cc1)c1cc(=O)[nH]c(-c2ccccc2)n1", "note": "(stereo not drawn) [Example 399, 6-oxo-2-phenyl-N-{pyridin-4-yl[4-(trifluoromethyl)phenyl]methyl}-1,6-dihydropyrimidine-4-carboxamide]", "values": [{"measurement": "Ki", "setting": "[2]", "result": 407, "unit": "nM"}]}, {"molecule": "COc1ccc([C@@H](C)NC(=O)c2cc(=O)[nH]c(-c3ncccn3)n2)c(OC)c1", "note": "[Example 88, N-[(1R)-1-(2,4-dimethoxyphenyl)ethyl]-6-oxo-1,6-dihydro-2,2′-bipyrimidine-4-carboxamide]", "values": [{"measurement": "Ki", "setting": "[1]", "result": 2360, "unit": "nM"}]}, {"molecule": "COc1cc(C(F)(F)F)ccc1[C@@H](C)NC(=O)c1cc(=O)[nH]c(-c2ncccn2)n1", "note": "[Example 109, N-{(1R)-1-[2-methoxy-4-(trifluoromethyl)phenyl]ethyl}-6-oxo-1,6-dihydro-2,2′-bipyrimidine-4-carboxamide]", "values": [{"measurement": "Ki", "setting": "[1]", "result": 342, "unit": "nM"}]}, {"molecule": "CCOC(=O)c1ccc([C@@H](C)NC(=O)c2cc(=O)[nH]c(-c3ccccc3)n2)cc1", "note": "[Example 355, ethyl 4-[(1R)-1-{[(6-oxo-2-phenyl-1,6-dihydropyrimidin-4-yl)carbonyl]amino}ethyl]benzoate]", "values": [{"measurement": "Ki", "setting": "[2]", "result": "~29200", "unit": "nM"}]}, {"molecule": "Cc1cc(-c2ccc([C@@H](C)NC(=O)c3cc(=O)[nH]c(C)n3)cc2)ccn1", "note": "[Example 319, 2-methyl-N-{(1R)-1-[4-(2-methylpyridin-4-yl)phenyl]ethyl}-6-oxo-1,6-dihydropyrimidine-4-carboxamide]", "values": [{"measurement": "Ki", "setting": "[1]", "result": 1490, "unit": "nM"}]}, {"molecule": "CC(NC(=O)c1cc(=O)[nH]c(-c2ccccc2)n1)c1cccc(OC(F)(F)F)c1", "note": "(stereo not drawn) [Example 422, 6-oxo-2-phenyl-N-{1-[3-(trifluoromethoxy)phenyl]ethyl}-1,6-dihydropyrimidine-4-carboxamide]", "values": [{"measurement": "Ki", "setting": "[2]", "result": 1840, "unit": "nM"}]}, {"molecule": "C[C@@H](NC(=O)c1cc(=O)[nH]c(-c2ncccn2)n1)c1ccc(C(F)(F)F)c2ccccc12", "note": "[Example 102, 6-oxo-N-{(1R)-1-[4-(trifluoromethyl)naphthalen-1-yl]ethyl}-1,6-dihydro-2,2′-bipyrimidine-4-carboxamide]", "values": [{"measurement": "Ki", "setting": "[1]", "result": 5120, "unit": "nM"}]}, {"molecule": "Cc1nc(C(=O)N[C@H](C)c2ccc(-c3ccc(C(F)(F)F)nc3)cc2)cc(=O)[nH]1", "note": "[Example 321, 2-methyl-6-oxo-N-[(1R)-1-{4-[6-(trifluoromethyl)pyridin-3-yl]phenyl}ethyl]-1,6-dihydropyrimidine-4-carboxamide]", "values": [{"measurement": "Ki", "setting": "[1]", "result": 911, "unit": "nM"}]}, {"molecule": "O=C(NC(c1ccccc1)c1ccc(C(F)(F)F)cc1)c1cc(=O)[nH]c(-c2ncccn2)n1", "note": "(stereo not drawn) [Example 78, 6-oxo-N-{phenyl[4-(trifluoromethyl)phenyl]methyl}-1,6-dihydro-2,2′-bipyrimidine-4-carboxamide]", "values": [{"measurement": "Ki", "setting": "[1]", "result": 1080, "unit": "nM"}]}, {"molecule": "COc1cc(C(C)NC(=O)c2cc(=O)[nH]c(C3CC3)n2)ccc1C(F)(F)F", "note": "(stereo not drawn) [Example 226, 2-cyclopropyl-N-{1-[3-methoxy-4-(trifluoromethyl)phenyl]ethyl}-6-oxo-1,6-dihydropyrimidine-4-carboxamide]", "values": [{"measurement": "Ki", "setting": "[1]", "result": 505, "unit": "nM"}]}, {"molecule": "O=C(NC1(c2ccccc2OC(F)(F)F)CCC1)c1cc(=O)[nH]c(-c2ccccc2)n1", "note": "[Example 411, 6-oxo-2-phenyl-N-{1-[2-(trifluoromethoxy)phenyl]cyclobutyl}-1,6-dihydropyrimidine-4-carboxamide]", "values": [{"measurement": "Ki", "setting": "[2]", "result": 1460, "unit": "nM"}]}, {"molecule": "CCC(NC(=O)c1cc(=O)[nH]c(C)n1)c1ccc(C(C)(C)C)cc1", "note": "(stereo not drawn) [Example 12, N-[1-(4-tert-butylphenyl)propyl]-2-methyl-6-oxo-1,6-dihydropyrimidine-4-carboxamide]", "values": [{"measurement": "Ki", "setting": "[1]", "result": 102, "unit": "nM"}]}, {"molecule": "COCc1nc(C(=O)NC(C)(C)c2ccc(C(F)(F)F)cc2)cc(=O)[nH]1", "note": "[Example 124, 2-(methoxymethyl)-N-{1-methyl-1-[4-(trifluoromethyl)phenyl]ethyl}-6-oxo-1,6-dihydropyrimidine-4-carboxamide]", "values": [{"measurement": "Ki", "setting": "[1]", "result": 283, "unit": "nM"}]}, {"molecule": "CC(C)(NC(=O)c1cc(=O)[nH]c(-c2ncccn2)n1)c1ccc(OC(F)(F)F)cc1", "note": "[Example 289, N-{1-methyl-1-[4-(trifluoromethoxy)phenyl]ethyl}-6-oxo-1,6-dihydro-2,2′-bipyrimidine-4-carboxamide]", "values": [{"measurement": "Ki", "setting": "[1]", "result": 2320, "unit": "nM"}]}, {"molecule": "C[C@H](c1ccc(C(F)(F)F)cc1)N(C)C(=O)c1cc(=O)[nH]c(-c2ccccc2)n1", "note": "[Example 389, N-methyl-6-oxo-2-phenyl-N-{(1R)-1-[4-(trifluoromethyl)phenyl]ethyl}-1,6-dihydropyrimidine-4-carboxamide]", "values": [{"measurement": "Ki", "setting": "[2]", "result": 8980, "unit": "nM"}]}, {"molecule": "Cc1nc(C(=O)NC(c2ccc(C3(C)CC3)c(F)c2)C(C)(C)C)cc(=O)[nH]1", "note": "(single isomer, unassigned) [Example 710, (S)- or (R)-N-(1-(3-fluoro-4-(1-methylcyclopropyl)phenyl)-2,2-dimethylpropyl)-2-methyl-6-oxo-1,6-dihydropyrimidine-4-carboxamide]", "values": [{"measurement": "Ki", "setting": "[2]", "result": "> 2970", "unit": "nM"}]}, {"molecule": "Cc1nc(C(=O)N[C@H](C)c2cc(F)c(C(F)(F)F)cc2F)cc(=O)[nH]1", "note": "[Example 616]", "values": [{"measurement": "Ki", "setting": "[2]", "result": 112, "unit": "nM"}]}, {"molecule": "COc1ccc(C(C)(C)c2nc(C(=O)N[C@@H](c3ccc(C(F)(F)F)c(F)c3)C3CC3)cc(=O)[nH]2)cc1", "note": "[Example 499, N-{(R)-cyclopropyl[3-fluoro-4-(trifluoromethyl)phenyl]methyl}-2-[1-(4-methoxyphenyl)-1-methylethyl]-6-oxo-1,6-dihydropyrimidine-4-carboxamide]", "values": [{"measurement": "Ki", "setting": "[2]", "result": 115, "unit": "nM"}]}, {"molecule": "Cc1nc(C(=O)NC(CO)c2ccc(C(F)(F)F)cc2)cc(=O)[nH]1", "note": "(single isomer, unassigned) [Example 311, (S)- or (R)-N-{2-hydroxy-1-[4-(trifluoromethyl)phenyl]ethyl}-2-methyl-6-oxo-1,6-dihydropyrimidine-4-carboxamide]", "values": [{"measurement": "Ki", "setting": "[1]", "result": 9120, "unit": "nM"}]}]}
